According to patent publication US20190060428A1, “FORMULATIONS FOR NEOPLASIA VACCINES AND METHODS OF PREPARING THEREOF” (The Broad Institue Inc., priority 2015, published 2019):

Key:
[1] = pH of peptide solutions in DMSO/D5W, with succinate, and with Hiltonol; assay type: physicochemical
[2] = Short-term room temperature stability of Pool 3 mixed with Hiltonol (RP-HPLC); assay type: physicochemical
Method: A peptide pool (Pool 3) consisting of the five peptides shown in Table 6 below was prepared by dissolution in DMSO and dilution with D5W/Succinate (2 mM) to 2 mg/ml and pooling to a final peptide concentration of 400 μg per ml and a final DMSO concentration of 4%. After preparation, peptides were filtered with a 25 mm Pall PES filter (Cat#4612) and dispensed into Nunc Cryo vials (#375418) in one ml aliquots.
Three samples were prepared by mixing 0.75 ml of Pool3 with 0.25 ml Hiltonol® as planned for the dosage form preparation. The samples were then left at room temperature for 0, 4 and 6 hours and analyzed by RP-HPLC (Table 7). […] As slight increase in a second peak associated with peptide CS6919 was noted, increasing from 14% to 17% and 18% at 4 and 6 hours, respectively. […] Recovery of all peptides was above 90%, indicating no breakdown and loss of any peptides in the final dosage form after 6 hour room temperature incubation.

physchem = details: pH 6

Substance	pH of peptides in DMSO/D5W [1]	solubility (physchem)	also measured
H-AESAQRQGPLGGGEQSANEF-OH [CS7417]	3.82		pH of peptides in DMSO/D5W/5mM S. Succinate spike [1]: 6.28; pH of peptides in DMSO/D5W/5nnM Succinate and Hiltonol [1]: 6.5
H-AESAQRQGPNGGGEQSANEF-OH [CS7416]	3.91		pH of peptides in DMSO/D5W/5mM S. Succinate spike [1]: 6.31; pH of peptides in DMSO/D5W/5nnM Succinate and Hiltonol [1]: 6.54; % Impurity ([2]; Pool 3 + Hiltonol, 4 Hours RT): 2.56%; % Purity ([2]; Pool 3 + Hiltonol, 4 Hours RT): 97.44%; Main Peak ([2]; Pool 3 + Hiltonol, 4 Hours RT): 5669.85; Total Impurities ([2]; Pool 3 + Hiltonol, 4 Hours RT): 148.82; Total Peak ([2]; Pool 3 + Hiltonol, 4 Hours RT): 5818.67; % Impurity ([2]; Pool 3 + Hiltonol, 6 Hours RT): 2.1%; % Purity ([2]; Pool 3 + Hiltonol, 6 Hours RT): 97.9%; Main Peak ([2]; Pool 3 + Hiltonol, 6 Hours RT): 6197.48; Total Impurities ([2]; Pool 3 + Hiltonol, 6 Hours RT): 132.83; Total Peak ([2]; Pool 3 + Hiltonol, 6 Hours RT): 6330.31; % Impurity ([2]; T0 Pool 3 + Hiltonol, RP-HPLC): 2.35%; % Purity ([2]; T0 Pool 3 + Hiltonol, RP-HPLC): 97.65%; Main Peak ([2]; T0 Pool 3 + Hiltonol, RP-HPLC): 5988.42; Total Impurities ([2]; T0 Pool 3 + Hiltonol, RP-HPLC): 143.98; Total Peak ([2]; T0 Pool 3 + Hiltonol, RP-HPLC): 6132.4
H-EPDQEAVQSSTYKDCNTLHLPTERFSPVR-OH [CS6710]	3.65		
H-GTKALQLHSIAGRWPRMEPWVVESMSLGVP-OH [CS7415]	3.91		pH of peptides in DMSO/D5W/5mM S. Succinate spike [1]: 6.61; pH of peptides in DMSO/D5W/5nnM Succinate and Hiltonol [1]: 6.81
H-GTYLQGTASALSQSQERPPSVNRVPPSSPSSQE-OH [CS6725]	3.95		
H-KGASLDAGWGSPRWTTTRMTSASAGRSTRA-OH [CS7414]	3.81		pH of peptides in DMSO/D5W/5mM S. Succinate spike [1]: 6.71; pH of peptides in DMSO/D5W/5nnM Succinate and Hiltonol [1]: 6.99
H-KKNITNLSRLVVRPDTDAVY-OH [CS7431]	3.8		pH of peptides in DMSO/D5W/5mM S. Succinate spike [1]: 6.45; pH of peptides in DMSO/D5W/5nnM Succinate and Hiltonol [1]: 6.69
H-KPKKVAGAATPKKSIKRTPKKVKKPATAAGTKK-OH [CS6717]	4.65		
H-LPVFIGNIAVNHAPVSLRPGLGLPPGAPPLVVP-OH [CS6730]	4.20		
H-LRVFIGNIAVNHAPVSLRPGLGLPPGAPPGTVP-OH [CS7412]	4.24		pH of peptides in DMSO/D5W/5mM S. Succinate spike [1]: 6.61; pH of peptides in DMSO/D5W/5nnM Succinate and Hiltonol [1]: 6.96
H-PIQVFYTKQPQNDYLHVALVSVFQIHQEAPSSQ-OH [CS6729]	3.87		
H-SHLASLKNNVSPVLRSHSFSDPSPKFA-OH		> 2000 µg/mL	
H-SHQIHSYQLYTHPLLHPWDHRD-OH		> 2000 µg/mL	
H-SHTQTTLFHTFYELLIQKNKHK-OH		> 2000 µg/mL	
H-SPIKLVQKVASKIPFPDRITEESV-OH		> 2000 µg/mL	
H-SPQSGGAATLAAQARLQPVHLDVWGEHERG-OH		> 2000 µg/mL	
H-SQSSTPAMLFPAPAAHRTLTYLSQ-OH		> 2000 µg/mL	
H-SRLQTRKNKKLALSSTPSNIAPSD-OH		> 2000 µg/mL	
H-SRNTGHLHPTPRFPLLRWTQEPQPLE-OH		> 2000 µg/mL	
H-SSELTAVNFPSFHVTSLKLMVSPTS-OH		> 2000 µg/mL	
H-SSPLGRANGRRFANPRDSFSAMGFQR-OH		> 2000 µg/mL	
H-STEVEPKESPHLARHRHLMKTLVKSLST-OH		> 2000 µg/mL	
H-STLPVISDSTTKRRWSALVIGL-OH		> 2000 µg/mL	
H-STQHADLTIIDNIKEMNFLRRYK-OH		> 2000 µg/mL	
H-SVLREDLGQLEYKYQYAYFRMGIKHPD-OH		< 2000 µg/mL	
H-TAQFAPSPGQPPALSPSYPGHRLPLQQG-OH		> 2000 µg/mL	
H-TFPKKIQMLARDFLDEY-OH		> 2000 µg/mL	

Substance	pH of peptides in DMSO/D5W [1]	solubility (physchem)	also measured
H-TGKPEMDFVRLAQLFARARPMGLF-OH		> 2000 µg/mL	
H-TIKNSDKNVVLEHFG-OH		> 2000 µg/mL	
H-TKDRDLLVVAHDLIWKMSPRTGDAKPS-OH		> 2000 µg/mL	
H-TKLKSKAPHWTNCILHEYKNLSTS-OH		> 2000 µg/mL	
H-TKRQVILLHTELERFLEYLPLRF-OH		> 2000 µg/mL	
H-TLKEEVNELQYRQKQLELLITNLMRQVD-OH		< 2000 µg/mL	
H-TSGSSTALPGSNPSTMDSGSGD-OH		< 2000 µg/mL	
H-TSRRLTGLLDHEVQAGRQ-OH		> 2000 µg/mL	
H-TTSGDERLYPSPTFYIHENYLQLFE-OH		< 2000 µg/mL	
H-TTTSVKKEELVLSEEDFQGITPGAQ-OH		< 2000 µg/mL	
H-TTVTHERKQAKVVNPPIQEVGKGARK-OH		> 2000 µg/mL	
H-VAGLAASGLHGSAWLVPGEQPVSGPHHGKQ-OH		> 2000 µg/mL	
H-VARNYLREAVSHNASLEVAILRD-OH		< 2000 µg/mL	
H-VDKNGRRRLVYLVENPGG-OH		> 2000 µg/mL	
H-VDKNGRRRLVYLVENPGGYVAYS-OH		> 2000 µg/mL	
H-VEQGHVRVGPDVVTHPAFLV-OH		> 2000 µg/mL	
H-VPDINMEKKLRKIRAQTQKHLDLYARDG-OH		> 2000 µg/mL	
H-VQLSIQDVIRRARLSTVPTAQRVALRSGWI-OH [CS7413]	3.9		pH of peptides in DMSO/D5W/5mM S. Succinate spike [1]: 6.73; pH of peptides in DMSO/D5W/5nnM Succinate and Hiltonol [1]: 7.02
H-VSWGKKVQPIDSILADWNEDIEAFEMMEKD-OH		> 2000 µg/mL	
H-WCTEMKRVFGFPVHYTDVSNMS-OH		> 2000 µg/mL	
H-WDGPPENDMLLKEICGSLIP-OH [CS7432]	3.72		pH of peptides in DMSO/D5W/5mM S. Succinate spike [1]: 6.22; pH of peptides in DMSO/D5W/5nnM Succinate and Hiltonol [1]: 6.45
H-YFDVVERSTEKIVDTSLIFNI-OH		< 2000 µg/mL	
H-YLLPKTAVVLRCPALRVRKP-OH		> 2000 µg/mL	
H-YLLPKTAVVLRCPALRVRKP-OH [CS7418]	3.98		pH of peptides in DMSO/D5W/5mM S. Succinate spike [1]: 6.76; pH of peptides in DMSO/D5W/5nnM Succinate and Hiltonol [1]: 6.96
H-YPEPQNKEAFVHSQMYSTDYDQI-OH		> 2000 µg/mL	
H-YRMYQKGQETSTNLIASIFA-OH		< 2000 µg/mL	

More lines, main results first:

pH of peptides in DMSO/D5W [1]	solubility (physchem)	Substance	also measured
3.99		H-ALSLTPGLRIGPSGLFLVFLAESAVDKGHPNRS-OH [CS7410]	pH of peptides in DMSO/D5W/5mM S. Succinate spike [1]: 6.46; pH of peptides in DMSO/D5W/5nnM Succinate and Hiltonol [1]: 6.88
3.87		H-DSAVDKGHPNRSALSLTPGLRIGPSGLFLVFLA-OH [CS7411]	pH of peptides in DMSO/D5W/5mM S. Succinate spike [1]: 6.53; pH of peptides in DMSO/D5W/5nnM Succinate and Hiltonol [1]: 6.94
3.84		H-IGALNPKRAAFFAEHYESWE-OH [CS7420]	pH of peptides in DMSO/D5W/5mM S. Succinate spike [1]: 6.38; pH of peptides in DMSO/D5W/5nnM Succinate and Hiltonol [1]: 6.56
3.86		H-LLTDRNTSGTTFTLLGVSDYPELQVP-OH [CS7409]	pH of peptides in DMSO/D5W/5mM S. Succinate spike [1]: 6.32; pH of peptides in DMSO/D5W/5nnM Succinate and Hiltonol [1]: 6.62
3.89		H-LLTDRNTSGTTFTLLGVSDYPELQVPIPQAGLG-OH [CS7408]	pH of peptides in DMSO/D5W/5mM S. Succinate spike [1]: 6.31; pH of peptides in DMSO/D5W/5nnM Succinate and Hiltonol [1]: 6.75
4.24		H-LPVFIGNIAVNHAPVSLRPGLGLPPGAPPGTVP-OH [CS7438]	pH of peptides in DMSO/D5W/5mM S. Succinate spike [1]: 6.78; pH of peptides in DMSO/D5W/5nnM Succinate and Hiltonol [1]: 6.96
3.95		H-PLMQTELHQLVPEADPEEMA-OH [CS7430]	pH of peptides in DMSO/D5W/5mM S. Succinate spike [1]: 6.23; pH of peptides in DMSO/D5W/5nnM Succinate and Hiltonol [1]: 6.37
4.11		H-PPYPYSSPSLVLPTEPHTPKSLQQPGLPS-OH [CS6715]	
3.82		H-RGLHSQGLGRGRIAMAQTAGVLRSLEQEE-OH [CS6711]	
3.87		H-SGQPAPEETVLFLGLLHGLLLILRRLRGG-OH [CS6937]	pH of peptides in DMSO/D5W/5mM S. Succinate spike [1]: 6.51; pH of peptides in DMSO/D5W/5nnM Succinate and Hiltonol [1]: 6.76
	> 2000 µg/mL	H-SHHTHSYQRYSHPLFLPGHRLDPPI-OH	
	> 2000 µg/mL	H-SHNELADSGIPENSFNVSSLVE-OH	
3.94		H-SKLPYPVAKSGKRALARGPAPTEKTPHSGAQLG-OH [CS6719]	
	> 2000 µg/mL	H-SKRGVGAKTLLLPDPFLFWPCLEGTRRSL-OH	
	> 2000 µg/mL	H-SLRNNMFEISDRFIGIYKTYNITK-OH	
	> 2000 µg/mL	H-SLTEESGGAVAFFPGNLSTSSSA-OH	

pH of peptides in DMSO/D5W [1]	solubility (physchem)	Substance	also measured
	< 2000 µg/mL	H-SMWKGELYRQNRFASSKESAKLYGS-OH	
3.78		H-SYDSVIRELLQKPNVRVVVL-OH [CS7425]	pH of peptides in DMSO/D5W/5mM S. Succinate spike [1]: 6.44; pH of peptides in DMSO/D5W/5nnM Succinate and Hiltonol [1]: 6.65
	< 2000 µg/mL	H-TISLLLIFYNTKEIARTEEHQE-OH	
	< 2000 µg/mL	H-TLDDIKEWLEDEGQVLNIQMRRTLHK-OH	
	> 2000 µg/mL	H-TNGPEKNSSSFPSSVDYAASGPRKL-OH	
	> 2000 µg/mL	H-TWAGHVSTALARPLGAPWAEPGSCGPGTN-OH	
3.72		H-VEQGHVRVGPDVVTHPAFLV-OH [CS7427]	pH of peptides in DMSO/D5W/5mM S. Succinate spike [1]: 6.34; pH of peptides in DMSO/D5W/5nnM Succinate and Hiltonol [1]: 6.52
	> 2000 µg/mL	H-VKQLERGEASVVDFKKNLEYAAT-OH	
	> 2000 µg/mL	H-VNGISSQPQVPFYPNLQKSQYYSTV-OH	
	> 2000 µg/mL	H-VPRIAELMNKKLPSFGPYLE-OH	
	> 2000 µg/mL	H-VQLSIQDVIRRARLSTVPTAQRVALRSGWI-OH	
	> 2000 µg/mL	H-VSGLEQLESIINFEKL-OH	
	> 2000 µg/mL	H-VTSPKASPVTFPAAAFPTASPANKD-OH	
	> 2000 µg/mL	H-WDGPPENDMLLKEICGSLIP-OH	
	> 2000 µg/mL	H-WTPAAPTAMAEVGPGHTPAHPSQGAVPP-OH	
	> 2000 µg/mL	H-YLSHTLGAASSFMRPTVPPPQF-OH	
